Earlier results in US20070208041A1, “Compositions for the treatment and prevention of heart disease and methods of using same” (priority 2005, published 2007).

Assays:
[1] = system: phenylephrine-constricted rat aorta
[2] = allopurinol alone

Compound	effect of ALDH-2 inhibitor benomyl on vasodilator response [1]	outcome of clinical trials [2]
O=[N+]([O-])OCC(CO[N+](=O)[O-])O[N+](=O)[O-] [GTN]	reduced the vasodilator potency, but not the efficacy	
Oc1ncnc2[nH]ncc12 [allopurinol]		not successful
O=[N+]([O-])O[C@H]1CO[C@H]2[C@@H]1OC[C@H]2O[N+](=O)[O-] [isosorbide dinitrate, 1,4:3,6-dianhydrosorbitol 2,5-dinitrate]	not affected	
O=[N+]([O-])O[C@@H]1CO[C@H]2[C@@H]1OC[C@@H]2O [isosorbide-5-mononitrate, 1,4:3,6-dianhydrosorbitol 5-mononitrate]	not affected	
O=[N+]([O-])OCC(CO)(CO)CO [pentaerythritol mononitrate]	not affected	
